One block for each compound: values may come before it.
How the values were obtained:
Assay type in all cases: biochemical
His-ABCD1 (human ABCD1) [1] = target: T1, His-ABCD1 (human ABCD1) (Homo sapiens, UniProt P33897); assay: liposome transport assay of NBD-C16, dithionite quench, TLC; settings: read-out: residual NBD-C16 transport at 20 μM
T1 construct: full-length, His-tagged (tag kept), expressed in Komagataella phaffii pxa1-delta, beta-DDM-solubilised, metal-chelate purified, reconstituted into soybean PC liposomes; about 80 kDa band

His-KpFAA2 = target: T2, His-KpFAA2 (Komagataella phaffii, UniProt F2QZH2); assay: acyl-CoA synthesis, TLC; settings: 5 mM CoA, 5 mM ATP, 5 mM MgCl2, pH 7.5, 30 °C, 3 h
T2 construct: gene FAA2; His-tagged, expressed in K. phaffii SMD1168, metal-chelate purified as for His-ABCD1
T2 sequence (F2QZH2 1-741): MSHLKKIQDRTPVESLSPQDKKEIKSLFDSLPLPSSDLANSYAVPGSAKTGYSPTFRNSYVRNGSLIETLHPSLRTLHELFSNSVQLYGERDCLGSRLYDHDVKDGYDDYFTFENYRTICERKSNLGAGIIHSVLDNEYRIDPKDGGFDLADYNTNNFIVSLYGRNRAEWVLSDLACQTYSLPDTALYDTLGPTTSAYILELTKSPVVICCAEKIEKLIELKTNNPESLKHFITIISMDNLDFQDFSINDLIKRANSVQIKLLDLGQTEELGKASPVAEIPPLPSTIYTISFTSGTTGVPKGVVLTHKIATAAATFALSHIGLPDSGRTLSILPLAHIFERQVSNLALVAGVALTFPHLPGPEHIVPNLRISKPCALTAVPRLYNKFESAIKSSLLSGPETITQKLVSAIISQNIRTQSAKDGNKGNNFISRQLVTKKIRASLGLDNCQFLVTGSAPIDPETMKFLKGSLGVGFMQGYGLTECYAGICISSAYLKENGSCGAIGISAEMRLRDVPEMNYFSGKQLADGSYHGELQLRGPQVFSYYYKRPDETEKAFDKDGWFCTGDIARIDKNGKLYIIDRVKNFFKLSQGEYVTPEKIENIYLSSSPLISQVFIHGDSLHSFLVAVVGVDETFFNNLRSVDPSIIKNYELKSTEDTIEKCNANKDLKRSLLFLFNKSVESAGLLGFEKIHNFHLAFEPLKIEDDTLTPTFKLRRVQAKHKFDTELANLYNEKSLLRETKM

His-ABCD1 (human ABCD1) [2] = target: T1, His-ABCD1 (human ABCD1); assay: thioesterase assay by TLC; in-gel fluorescence of acylated protein; settings: 1 mM MgCl2, 37 °C; ABCD1-liposomes; covalent acyl (thioester) intermediate
His-ABCD1 (human ABCD1) [3] = target: T3, His-ABCD1 (human ABCD1) (Homo sapiens, UniProt P33897, K513A); assay: as above; settings: 1 mM MgCl2, 37 °C, 30 min; mutant liposomes; covalent acyl intermediate
T3 construct: full-length, His-tagged (tag kept), expressed in Komagataella phaffii pxa1-delta, beta-DDM-solubilised, metal-chelate purified, reconstituted into soybean PC liposomes; about 80 kDa band
T3 sequence (P33897 1-745 K513A): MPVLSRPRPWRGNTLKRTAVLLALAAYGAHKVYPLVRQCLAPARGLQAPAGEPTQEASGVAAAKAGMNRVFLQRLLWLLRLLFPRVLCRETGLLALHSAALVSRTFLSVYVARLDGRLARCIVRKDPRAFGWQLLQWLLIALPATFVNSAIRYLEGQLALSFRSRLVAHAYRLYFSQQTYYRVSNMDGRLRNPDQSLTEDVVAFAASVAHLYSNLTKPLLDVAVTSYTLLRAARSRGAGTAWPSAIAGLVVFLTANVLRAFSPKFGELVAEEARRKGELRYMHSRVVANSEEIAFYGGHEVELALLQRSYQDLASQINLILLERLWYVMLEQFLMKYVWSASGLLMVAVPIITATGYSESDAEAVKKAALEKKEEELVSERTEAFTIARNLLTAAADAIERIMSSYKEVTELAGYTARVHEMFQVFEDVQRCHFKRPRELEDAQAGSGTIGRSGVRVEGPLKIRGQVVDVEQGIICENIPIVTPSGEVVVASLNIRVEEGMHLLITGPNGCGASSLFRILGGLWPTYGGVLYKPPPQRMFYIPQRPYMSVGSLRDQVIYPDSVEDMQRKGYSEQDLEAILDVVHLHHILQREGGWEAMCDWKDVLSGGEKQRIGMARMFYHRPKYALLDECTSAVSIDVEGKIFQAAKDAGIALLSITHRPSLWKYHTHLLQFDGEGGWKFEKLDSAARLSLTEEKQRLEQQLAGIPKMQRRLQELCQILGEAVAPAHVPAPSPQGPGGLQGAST

His-ABCD1 (human ABCD1) [4] = target: T1, His-ABCD1 (human ABCD1); assay: ATPase, phosphate release; settings: 5 mM ATP, 11 mM MgCl2, pH 7.6, 37 °C; ABCD1-liposomes

remaining activity at 20 µM (His-ABCD1 (human ABCD1) [1]): 3.95 ± 0.7%
SMILES: CCCCCCCCCCCCCCCC(=O)SCCNC(=O)CCNC(=O)[C@H](O)C(C)(C)COP(=O)(O)OP(=O)(O)OC[C@H]1O[C@@H](n2cnc3c(N)ncnc32)[C@H](O)[C@@H]1OP(=O)(O)O [palmitoyl-CoA]

SMILES: O=C(O)CCCCCNc1ccc([N+](=O)[O-])c2nonc12 [NBD-C6]
acyl-CoA synthesis, TLC (His-KpFAA2): NBD-C6) was incubated with purified His-KpFAA2 to generate NBD-hexanoyl-CoA

SMILES: CC(C)(COP(=O)(O)OP(=O)(O)OC[C@H]1O[C@@H](n2cnc3c(N)ncnc32)[C@H](O)[C@@H]1OP(=O)(O)O)[C@@H](O)C(=O)NCCC(=O)NCCSC(=O)CCCCCCCCCCCCCCCNc1ccc([N+](=O)[O-])c2nonc12 [NBD-C16-CoA]
thioesterase assay by TLC; in-gel fluorescence of acylated protein (His-ABCD1 (human ABCD1) [2]): demonstrating that ABCD1 is covalently labeled by NBD-C16
thioesterase assay by TLC; in-gel fluorescence of acylated protein (His-ABCD1 (human ABCD1) [3]): these mutants possess ACOT activity comparable to the wild type and exhibited covalent linkage

ATPase, phosphate release (His-ABCD1 (human ABCD1) [4]): ABCD1-liposomes possess ATPase activity
SMILES: Nc1ncnc2c1ncn2[C@@H]1O[C@H](COP(=O)(O)OP(=O)(O)OP(=O)(O)O)[C@@H](O)[C@H]1O [ATP]

— article PMC7838297, “Acyl-CoA thioesterase activity of peroxisomal ABC protein ABCD1 is required for the transport of very long-chain acyl-CoA into peroxisomes” (Scientific Reports, 2021)
